# According to US20140308733A1, “METHOD FOR INDUCING GERMINATION OF SPORE FORMING BACTERIUM” (CALPIS CO., LTD., priority 2011, published 2014):
# How the values were obtained:
# Assay in all cases: Germination induction, change of turbidity (630 nm) of spore suspension
# Type in all cases: cell-based
# Settings in all cases: 300 ppm; for turbidity (630 nm): 37° C., 150 rpm
# [1] = test system: Bacillus subtilis C-3102 (FERM BP-1096)
# Procedure: (§1) It is possible to determine whether spores have germinated, after measuring an OD 630 value (turbidity at 630 nm) of the liquid culture, based on decrease in the value (Literature: Microbiology, (1950), 4, 3, 330-338). Briefly, bacterial cells after culturing are washed with distilled water and diluted with distilled water to OD 630=1.0, which is then mixed with an equal volume of a germination induction solution, and the turbidity at 630 nm is measured by a UV spectrophotometer at room temperature.
# (§2) TS culture media (Difco, Trypticase Soy Broth) were inoculated respectively with 11 strains listed in Table 1 and cultured at 50° C. with respect to Geobacillus stearothermophilus NBRC13737 and Aeribacillus pallidus TK6004 (FERM BP-08597), and at 37° C. with respect to the other 9 strains, until respective colonies were established. Then with respect to each of 11 strains, a loop full of a single colony was scratched by a platinum loop and suspended in 500 μL of sterilized water. In 1000 g of water was dissolved 8.0 g of a nutrient agar culture medium (Difco, Nutrient Broth), followed by high pressure steam sterilization (121° C., 15 min) to prepare a plate medium. The nutrient agar culture medium was smeared with each 100 μL of the suspension and cultured at 37° C. for 3 days.
# (§3) Then, bacterial cells were suspended using a platinum loop in 500 μL of sterilized water, and the bacterial suspension was subjected to a heat shock at 65° C. for 35 min. Each 100 μL of the heat-shocked bacterial suspension and a not-heat-shocked bacterial suspension were smeared on the TS culture media respectively and cultured at 50° C. or 37° C. for 1 day. As the results of the cultures, colony formation was confirmed also with respect to the heat-shocked bacterial suspensions, to confirm that spores were formed for all of 11 strains. Further, since the bacteria were not stained by Gram staining, it was reconfirmed that spores were formed.
# (§4) After confirming the spore formation, the bacterial cells were collected by a bacteria spreader, suspended in 10 mL of sterilized distilled water, and then centrifuged (8340×g, 4° C., 15 min). The supernatant was removed and thereafter the bacterial cells were washed twice with 10 mL of sterilized water. After washing, the bacterial cells were suspended in 5 mL of sterilized water, and the suspension was filtrated by sterilized Kimwipes. The filtrate was centrifuged (8340×g, 4° C., 15 min) to remove the supernatant, and the rest was adjusted to the turbidity (at 630 nm) of 1.0 with sterilized water.
# (§5) After dissolving with stirring using a stirring rod with a propeller, filtration sterilization (0.45 μm filter) was conducted to prepare each 600 ppm-solution.
# (§6) Five hundred (500) μL of each solution and 500 μL of each bacterial spore suspension were mixed. […] Defining the time point of mixing as the reaction initiation (0 min), and continuing shaking (150 rpm) at 37° C., the turbidity (630 nm) was measured at 10, 20, 30, 40, 50, 60, 90, 120, and 180 min after the reaction initiation.
# (§7) Since the turbidity at 630 nm decreases by germination of spores, it has been known that the turbidity at 630 nm can be used to determine the germination rate.
# [2] = test system: Bacillus amyloliquefaciens (NBRC 3032)
# Procedure: as §1, §2, §3, §4, §5, §6, §7
# [3] = test system: Bacillus subtilis sp spizizenii (NBRC 101239)
# Procedure: as §1, §2, §3, §4, §5, §6, §7
# [4] = test system: Bacillus amyloliquefaciens (NBRC 3022)
# Procedure: as §1, §2, §3, §4, §5, §6, §7
# [5] = test system: Geobacillus stearothermophilus (NBRC 13737)
# Procedure: as §1, §2, §3, §4, §5, §6, §7
# [6] = test system: Bacillus licheniformis (NBRC 12200)
# Procedure: as §1, §2
# (§8) Then, bacterial cells were suspended using a platinum loop in 500 μL of sterilized water, and the bacterial suspension was subjected to a heat shock at 65° C. for 35 min. Each 100 μL of the heat-shocked bacterial suspension and a not-heat-shocked bacterial suspension were smeared on the TS culture media respectively and cultured at 50° C. or 37° C. for 1 day.
# as §4, §5, §6, §7
# [7] = test system: Bacillus licheniformis (NBRC 14206)
# Procedure: as §1, §2, §8, §4, §5, §6, §7
# [8] = 0 min after reaction initiation
# [9] = 10 min after reaction initiation
# [10] = 20 min after reaction initiation
# [11] = 30 min after reaction initiation
# [12] = 40 min after reaction initiation
# [13] = 50 min after reaction initiation
# [14] = 60 min after reaction initiation
# [15] = 90 min after reaction initiation
# [16] = 120 min after reaction initiation
# [17] = 180 min after reaction initiation
compound,measurement,setting,value
"COc1cc(/C=C/C(=O)O)ccc1O [Ferulic acid, ferulic acid]",turbidity (630 nm),[1]; [8],0.602
same,turbidity (630 nm),[1]; [9],0.578
same,turbidity (630 nm),[1]; [10],0.558
same,turbidity (630 nm),[1]; [11],0.548
same,turbidity (630 nm),[1]; [12],0.535
same,turbidity (630 nm),[1]; [13],0.506
same,turbidity (630 nm),[1]; [14],0.493
same,turbidity (630 nm),[1]; [15],0.471
same,turbidity (630 nm),[1]; [16],0.430
same,turbidity (630 nm),[1]; [17],0.335
same,germination confirmed by turbidity decrease,[1]; up to 180 min,the turbidity decreased
same,turbidity (630 nm),[2]; [8],0.526
same,turbidity (630 nm),[2]; [9],0.505
same,turbidity (630 nm),[2]; [10],0.480
same,turbidity (630 nm),[2]; [11],0.431
same,turbidity (630 nm),[2]; [12],0.397
same,turbidity (630 nm),[2]; [13],0.353
same,turbidity (630 nm),[2]; [14],0.316
same,turbidity (630 nm),[2]; [15],0.269
same,turbidity (630 nm),[2]; [16],0.245
same,turbidity (630 nm),[2]; [17],0.216
same,germination confirmed by turbidity decrease,[2]; up to 180 min,the turbidity decreased
same,turbidity (630 nm),[3]; [8],0.534
same,turbidity (630 nm),[3]; [9],0.512
same,turbidity (630 nm),[3]; [10],0.495
same,turbidity (630 nm),[3]; [11],0.471
same,turbidity (630 nm),[3]; [12],0.458
same,turbidity (630 nm),[3]; [13],0.439
same,turbidity (630 nm),[3]; [14],0.414
same,turbidity (630 nm),[3]; [15],0.362
same,turbidity (630 nm),[3]; [16],0.306
same,turbidity (630 nm),[3]; [17],0.224
same,germination confirmed by turbidity decrease,[3]; up to 180 min,germination was confirmed
same,turbidity (630 nm),[4]; [8],0.522
same,turbidity (630 nm),[4]; [9],0.447
same,turbidity (630 nm),[4]; [10],0.400
same,turbidity (630 nm),[4]; [11],0.328
same,turbidity (630 nm),[4]; [12],0.234
same,turbidity (630 nm),[4]; [13],0.192
same,turbidity (630 nm),[4]; [14],0.133
same,turbidity (630 nm),[4]; [15],0.094
same,turbidity (630 nm),[4]; [16],0.067
same,turbidity (630 nm),[4]; [17],0.030
same,germination confirmed by turbidity decrease,[4]; up to 180 min,the turbidity decreased
same,turbidity (630 nm),[5]; [8],0.560
same,turbidity (630 nm),[5]; [9],0.551
same,turbidity (630 nm),[5]; [10],0.537
same,turbidity (630 nm),[5]; [11],0.541
same,turbidity (630 nm),[5]; [12],0.489
same,turbidity (630 nm),[5]; [13],0.473
same,turbidity (630 nm),[5]; [14],0.459
same,turbidity (630 nm),[5]; [15],0.397
same,turbidity (630 nm),[5]; [16],0.326
same,turbidity (630 nm),[5]; [17],0.202
same,germination confirmed by turbidity decrease,[5]; up to 180 min,the turbidity decreased
same,turbidity (630 nm),[6]; [8],0.601
same,turbidity (630 nm),[6]; [9],0.569
same,turbidity (630 nm),[6]; [10],0.563
same,turbidity (630 nm),[6]; [11],0.543
same,turbidity (630 nm),[6]; [12],0.536
same,turbidity (630 nm),[6]; [13],0.517
same,turbidity (630 nm),[6]; [14],0.503
same,turbidity (630 nm),[6]; [15],0.460
same,turbidity (630 nm),[6]; [16],0.417
same,turbidity (630 nm),[6]; [17],0.334
same,germination confirmed by turbidity decrease,[6]; up to 180 min,the turbidity decreased
same,turbidity (630 nm),[7]; [8],0.589
same,turbidity (630 nm),[7]; [9],0.583
same,turbidity (630 nm),[7]; [10],0.573
same,turbidity (630 nm),[7]; [11],0.565
same,turbidity (630 nm),[7]; [12],0.553
same,turbidity (630 nm),[7]; [13],0.547
same,turbidity (630 nm),[7]; [14],0.530
same,turbidity (630 nm),[7]; [15],0.498
same,turbidity (630 nm),[7]; [16],0.474
same,turbidity (630 nm),[7]; [17],0.463
same,germination confirmed by turbidity decrease,[7]; up to 180 min,the turbidity decreased
